Data taken from paper PMC4255142 (Bioorganic & medicinal chemistry letters, 2014).

Key:
[1] = biological target: T1, holocarboxylase synthetase (HLCS) (Homo sapiens, UniProt P50747); assay: Competition studies with biotin; format: biochemical; conditions: for Mechanism of HLCS inhibition: competition studies with biotin; for apparent Vmax with inhibitor: 250 μM inhibitor, biotin varied 0-320 μM, n=4
T1 sequence (P50747 1-726): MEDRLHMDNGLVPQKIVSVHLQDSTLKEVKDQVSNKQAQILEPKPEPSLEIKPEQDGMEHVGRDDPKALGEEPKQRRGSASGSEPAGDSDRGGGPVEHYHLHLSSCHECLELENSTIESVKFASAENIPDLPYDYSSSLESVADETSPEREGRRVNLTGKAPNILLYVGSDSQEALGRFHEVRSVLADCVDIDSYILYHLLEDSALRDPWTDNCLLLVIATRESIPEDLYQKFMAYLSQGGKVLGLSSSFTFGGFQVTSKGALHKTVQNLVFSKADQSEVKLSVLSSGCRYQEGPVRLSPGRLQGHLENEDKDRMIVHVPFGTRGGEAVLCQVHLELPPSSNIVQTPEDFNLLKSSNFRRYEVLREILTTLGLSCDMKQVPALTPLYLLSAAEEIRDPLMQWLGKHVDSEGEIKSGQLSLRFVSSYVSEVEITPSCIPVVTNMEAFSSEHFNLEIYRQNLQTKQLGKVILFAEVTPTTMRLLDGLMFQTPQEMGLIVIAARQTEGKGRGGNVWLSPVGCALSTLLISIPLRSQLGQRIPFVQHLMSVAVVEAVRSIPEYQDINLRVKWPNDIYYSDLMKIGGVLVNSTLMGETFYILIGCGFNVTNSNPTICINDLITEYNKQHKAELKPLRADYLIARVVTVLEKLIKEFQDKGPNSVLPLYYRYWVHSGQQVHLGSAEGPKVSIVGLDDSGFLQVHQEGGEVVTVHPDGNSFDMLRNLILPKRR

[2] = biological target: T1, holocarboxylase synthetase (HLCS); assay: Inhibition of HLCS-catalysed biotinylation of recombinant p67; format: biochemical; conditions: data not shown

Mechanism of HLCS inhibition [1]	Mechanism of HLCS inhibition ([1]; listed as Biotinol-AMP)	Mechanism of HLCS inhibition ([1]; listed as β-HydroxyP)	Mechanism of HLCS inhibition ([1]; listed as β-KetoP)	Structure (SMILES)	HLCS inhibition (negative control, in words) [2]	apparent Vmax with inhibitor [1]
mixed	mixed inhibitor			Nc1ncnc2c1ncn2[C@@H]1O[C@H](COP(=O)(O)OCCCCC[C@@H]2SC[C@@H]3NC(=O)N[C@@H]32)[C@@H](O)[C@H]1O [biotinol-5'-AMP, biotinol-5′-AMP, reference compound]		
				COP(=O)(O)CC(=O)CCCC[C@@H]1SC[C@@H]2NC(=O)N[C@@H]21 [compound 3]	did not inhibit HLCS	
competitive		competitive inhibitor		N.Nc1ncnc2c1ncn2[C@@H]1O[C@H](COP(=O)(O)CC(O)CCCC[C@@H]2SC[C@@H]3NC(=O)N[C@@H]32)[C@@H](O)[C@H]1O (stereo partly drawn) [β-hydroxyP, biotin β-hydroxyphosphonate-5′-AMP]		20.6±1.8 pmol biotinylated p67/(nmol HLCS x s)
competitive			competitive inhibitor	N.Nc1ncnc2c1ncn2[C@@H]1O[C@H](COP(=O)(O)CC(=O)CCCC[C@@H]2SC[C@@H]3NC(=O)N[C@@H]32)[C@@H](O)[C@H]1O [β-ketoP, biotin β-ketophosphonate-5′-AMP]		31.5±1.6 pmol biotinylated p67/(nmol HLCS x s)
